# Where “and” joins values, the source holds several entries; their conditions need not be identical. Equal values may be shown once. Entries after “also recorded” stand apart in the source; their conditions may differ.
# Columns and labels:
# Assay type in all cases: physicochemical
# [1] = Stability test of the crystal forms (HPLC impurity content); conditions: for Stability, conclusion in words: stress conditions (high temperature, high humidity, light)
# Method: The method for High Performance Liquid Chromatograph (HPLC) in the present disclosure
# Instrument Model: Agilent 1200 High Performance Liquid Chromatograph
# The analysis method is as follows: […]
# About 10 mg of the crystal form B of the compound represented by formula (II) was weighted and placed under stability test conditions, and the samples were collected and analyzed after 5 days, 10 days, and 1 month.
# About 10 mg of the crystal form C of the compound represented by formula (III) was weighted and placed under stability test conditions, and the samples were collected and analyzed after 5 days, 10 days, and 1 month respectively.
# [2] = Solubility test in different solvents; conditions: 25° C.±2° C.
# Method: (§1) 10 mg of the crystal form A of the compound represented by formula (I) was placed into a glass bottle, 1 mL of solvent was added thereto and the bottle was shaken vigorously for 30 seconds every 5 minutes at 25° C.±2° C., the dissolution was observed over 30 minutes. The corresponding data were recorded in the table.
# as §1, with “For insoluble samples, another 1” for “10”, “an appropriate” for “1 mL of”, “thereto,” for “thereto”, “Table 10.” for “the table.”
# [3] = Stability test of the crystal forms (HPLC impurity content); conditions: form A, 5 days
# [4] = Hygroscopicity study (weight gain over saturated ammonium chloride solution, 25° C., 24 hours)
# Method: The hygroscopicity was evaluated using the scales in the following Table 4:
# 3 dry glass weighing bottles with stopper (outer diameter of 50 mm, height of 30 mm) were placed in a desiccator having saturated ammonium chloride solution placed at the bottom, the weighing bottles were left open, and the desiccator was covered with lid, placed in a thermostat setting at 25° C. overnight.
# The weighing bottles were took out and accurately weighed, the weight data were noted as m11, m12 and m13 respectively.
# An appropriate amount of the crystal form A of the compound represented by formula (I), was spread in the weighed weighing bottles (the thickness of the sample was about 1 mm), and then accurately weighed, the weight data were noted as m21, m22 and m23, respectively.
# The open weighing bottles and the bottle stoppers were placed in a desiccator having saturated ammonium chloride solution placed at the bottom, and the desiccator was covered with a lid, placed in a thermostat setting at 25° C. for 24 hours.
# After standing for 24 hours, the weighing bottles were closed with the stoppers, then accurately weighed, and the weight data were noted as m31, m32 and m33.
# Hygroscopicity weight gain was calculated, the calculation formula was as follows: Percentage gain=100%×(m3−m2)/(m2−m1)
# [5] = form B, 40° C. relative humidity 75%, 1 month
# [6] = form B, 40° C. relative humidity 75%, 10 days
# [7] = form B, 60° C. relative humidity 75%, 1 month
# [8] = form B, 60° C. relative humidity 75%, 10 days
# [9] = form B, Light (total illuminance = 1.2 × 106 Lux · hr/near ultraviolet = 200 w · hr/m^2)
# [10] = form B, Relative humidity 92.5%, 1 month
# [11] = form B, Relative humidity 92.5%, 5 days
# [12] = form B, Relative humidity 92.5%, 10 days
# [13] = form A, 40° C. Relative humidity 75%, 1 month
# [14] = form A, 40° C. Relative humidity 75%, 2 months
# [15] = form A, 40° C. Relative humidity 75%, 10 days
# [16] = form A, 60° C. Relative humidity 75%, 1 month
# [17] = form A, 60° C. Relative humidity 75%, 2 months
# [18] = form A, 60° C. Relative humidity 75%, 10 days
# [19] = form A, Light (total illuminance = 1.2 × 106 Lux · hr/near ultraviolet = 200 w · hr/m^2)
# [20] = form A, Relative humidity 92.5%, 5 days
# [21] = form A, Relative humidity 92.5%, 10 days
# [22] = form C, Light (total illuminance = 1.2 × 106 Lux · hr/near ultraviolet = 200 w · hr/m^2)
smiles,measurement,setting,value
C[C@H](c1cccc(-c2ncc(OCC3CCN(C)CC3)cn2)c1)n1cc(-c2cc(C#N)ccn2)cc(F)c1=O.Cl,"Impurity content, relative retention time 0.77","[1]; form B, 0 day",0.05%
same,"Impurity content, relative retention time 1.04","[1]; form B, 0 day",2.18%
same,Total impurities,"[1]; form B, 0 day",2.24%
same,"Impurity content, relative retention time 0.77",[1]; [5],0.23%
same,"Impurity content, relative retention time 1.04",[1]; [5],1.95%
same,Total impurities,[1]; [5],2.18%
same,"Impurity content, relative retention time 0.77",[1]; [6],0.18%
same,"Impurity content, relative retention time 1.04",[1]; [6],2.02%
same,Total impurities,[1]; [6],2.2%
same,"Impurity content, relative retention time 0.77",[1]; [7],0.36%
same,"Impurity content, relative retention time 1.04",[1]; [7],1.76%
same,Total impurities,[1]; [7],2.12%
same,"Impurity content, relative retention time 0.77",[1]; [8],0.42%
same,"Impurity content, relative retention time 1.04",[1]; [8],1.72%
same,Total impurities,[1]; [8],2.13%
same,"Impurity content, relative retention time 0.77","[1]; form B, 60° C., 1 month",0.05%
same,"Impurity content, relative retention time 1.04","[1]; form B, 60° C., 1 month",2.27%
same,"Impurity content, relative retention time 1.4","[1]; form B, 60° C., 1 month",0.28%
same,"Impurity content, relative retention time 1.41","[1]; form B, 60° C., 1 month",0.07%
same,"Impurity content, relative retention time 1.43","[1]; form B, 60° C., 1 month",0.06%
same,"Impurity content, relative retention time 1.49","[1]; form B, 60° C., 1 month",0.05%
same,Total impurities,"[1]; form B, 60° C., 1 month",2.78%
same,"Impurity content, relative retention time 0.77","[1]; form B, 60° C., 5 days",0.06%
same,"Impurity content, relative retention time 1.04","[1]; form B, 60° C., 5 days",2.18%
same,"Impurity content, relative retention time 1.4","[1]; form B, 60° C., 5 days",0.06%
same,Total impurities,"[1]; form B, 60° C., 5 days",2.3%
same,"Impurity content, relative retention time 1.04","[1]; form B, 60° C., 10 days",2.16%
same,"Impurity content, relative retention time 1.4","[1]; form B, 60° C., 10 days",0.12%
same,Total impurities,"[1]; form B, 60° C., 10 days",2.29%
same,"Impurity content, relative retention time not resolvable (one of 1.4 to 1.49)",[1]; [9],0.17%
same,Total impurities,[1]; [9],2.39%
same,"Impurity content, relative retention time 0.77",[1]; [10],0.2%
same,"Impurity content, relative retention time 1.04",[1]; [10],2.03%
same,Total impurities,[1]; [10],2.23%
same,"Impurity content, relative retention time 0.77",[1]; [11],0.13%
same,"Impurity content, relative retention time 1.04",[1]; [11],2.08%
same,Total impurities,[1]; [11],2.21%
same,"Impurity content, relative retention time 0.77",[1]; [12],0.16%
same,"Impurity content, relative retention time 1.04",[1]; [12],2.04%
same,Total impurities,[1]; [12],2.2%
same,"Stability, conclusion in words",[1],stable under high temperature and light conditions
C[C@H](c1cccc(-c2ncc(OCC3CCN(C)CC3)cn2)c1)n1cc(-c2cc(C#N)ccn2)cc(F)c1=O [crystal form A of the compound represented by formula (I)],Solubility classification,[2]; 0.1N HCl,Soluble
same,Solubility classification,[2]; 0.1N NaOH,practically insoluble or insoluble; also recorded: Practically insoluble
same,Solubility classification,[2]; Acetonitrile,Very slightly soluble
same,Solubility classification,[2]; Diethylamine,practically insoluble or insoluble; also recorded: Practically insoluble
same,Solubility classification,[2]; Ethanol,very slightly soluble
same,Solubility classification,[2]; Ethyl acetate,Very slightly soluble
same,Solubility classification,[2]; N-Methylpyrrolidone,Very soluble
same,Solubility classification,[2]; Tetrahydrofuran,Sparingly soluble
same,Solubility classification,[2]; Trifluoroacetic acid,Sparingly soluble
same,Solubility classification,[2]; acetone,Slightly soluble
same,Solubility classification,[2]; n-Hexane,practically insoluble or insoluble; also recorded: Practically insoluble
same,Solubility classification,[2]; water,Very soluble
same,Total impurities,[3]; 60° C.,0.99%
same,"Impurity content, relative retention time 1.07",[3]; Relative humidity 92.5%,0.53%
same,Average value of percentage gain (average hygroscopicity),"[4]; 25° C., 24 hours over saturated ammonium chloride solution, mean of 3 samples",0.060%
same,"Percentage gain (hygroscopic weight gain), single samples","[4]; 25° C., 24 hours over saturated ammonium chloride solution, samples No. 1-3",0.03% and 0.08% and 0.07%
same,Hygroscopicity scale,[4]; classified by the average weight gain,no or almost no hygroscopicity
same,"Impurity content, relative retention time 0.93","[1]; form A, 0 day",0.14%
same,"Impurity content, relative retention time 1.07","[1]; form A, 0 day",0.52%
same,Total impurities,"[1]; form A, 0 day",0.67%
same,"Impurity content, relative retention time 0.93",[1]; [13],0.12%
same,"Impurity content, relative retention time 1.07",[1]; [13],0.45%
same,Total impurities,[1]; [13],0.63%
same,"Impurity content, relative retention time 0.93",[1]; [14],0.15%
same,"Impurity content, relative retention time 1.07",[1]; [14],0.52%
same,Total impurities,[1]; [14],0.66%
same,"Impurity content, relative retention time 0.93",[1]; [15],0.14%
same,"Impurity content, relative retention time 1.07",[1]; [15],0.5%
same,Total impurities,[1]; [15],0.58%
same,"Impurity content, relative retention time 0.93",[1]; [16],0.13%
same,"Impurity content, relative retention time 1.07",[1]; [16],0.49%
same,Total impurities,[1]; [16],0.62%
same,"Impurity content, relative retention time 0.93",[1]; [17],0.17%
same,"Impurity content, relative retention time 1.07",[1]; [17],0.59%
same,Total impurities,[1]; [17],0.75%
same,"Impurity content, relative retention time 0.93",[1]; [18],0.14%
same,"Impurity content, relative retention time 1.07",[1]; [18],0.53%
same,Total impurities,[1]; [18],0.67%
same,"Impurity content, relative retention time 0.93","[1]; form A, 60° C., 5 days",0.12%
same,"Impurity content, relative retention time 0.99","[1]; form A, 60° C., 5 days",0.13%
same,"Impurity content, relative retention time 1.07","[1]; form A, 60° C., 5 days",0.47%
same,"Impurity content, relative retention time 1.39","[1]; form A, 60° C., 5 days",0.17%
same,"Impurity content, relative retention time 1.48","[1]; form A, 60° C., 5 days",0.1%
same,"Impurity content, relative retention time 0.93","[1]; form A, 60° C., 10 days",0.12%
same,"Impurity content, relative retention time 0.99","[1]; form A, 60° C., 10 days",0.19%
same,"Impurity content, relative retention time 1.05","[1]; form A, 60° C., 10 days",0.14%
same,"Impurity content, relative retention time 1.07","[1]; form A, 60° C., 10 days",0.45%
same,"Impurity content, relative retention time 1.39","[1]; form A, 60° C., 10 days",0.41%
same,"Impurity content, relative retention time 1.43","[1]; form A, 60° C., 10 days",0.11%
same,"Impurity content, relative retention time 1.48","[1]; form A, 60° C., 10 days",0.23%
same,Total impurities,"[1]; form A, 60° C., 10 days",1.64%
same,"Impurity content, relative retention time 0.93",[1]; [19],0.11%
same,"Impurity content, relative retention time 0.99",[1]; [19],0.29%
same,"Impurity content, relative retention time 1.05",[1]; [19],0.8%
same,"Impurity content, relative retention time 1.07",[1]; [19],0.46%
same,"Impurity content, relative retention time 1.39",[1]; [19],3.98%
same,"Impurity content, relative retention time 1.43",[1]; [19],1.18%
same,"Impurity content, relative retention time 1.48",[1]; [19],1.62%
same,Total impurities,[1]; [19],13.45%
same,"Impurity content, relative retention time 0.93",[1]; [20],0.14%
same,Total impurities,[1]; [20],0.67%
same,"Impurity content, relative retention time 0.93",[1]; [21],0.14%
same,"Impurity content, relative retention time 1.07",[1]; [21],0.52%
same,Total impurities,[1]; [21],0.67%
same,"Stability, conclusion in words",[1],good stability
C[C@H](c1cccc(-c2ncc(OCC3CCN(C)CC3)cn2)c1)n1cc(-c2cc(C#N)ccn2)cc(F)c1=O [crystal form C of the compound represented by formula (III)],Total impurities,"[1]; form C, 0 day",2.22%
same,Total impurities,"[1]; form C, 40° C. Relative humidity 75%, 1 month",2.31%
same,Total impurities,"[1]; form C, 40° C. Relative humidity 75%, 10 days",2.26%
same,Total impurities,"[1]; form C, 60° C. Relative humidity 75%, 1 month",12.75%
same,Total impurities,"[1]; form C, 60° C. Relative humidity 75%, 10 days",6.04%
same,Total impurities,"[1]; form C, 60° C., 1 month",2.35%
same,Total impurities,"[1]; form C, 60° C., 5 days",2.27%
same,Total impurities,"[1]; form C, 60° C., 10 days",2.35%
same,"Impurity content, relative retention time 0.45 (column inferred)",[1]; [22],0.05%
same,"Impurity content, relative retention time 0.7 (column inferred)",[1]; [22],0.12%
same,"Impurity content, relative retention time 0.75 (column inferred)",[1]; [22],0.05%
same,"Impurity content, relative retention time 0.87 or 0.94 (column inferred)",[1]; [22],0.24%
same,Total impurities,[1]; [22],2.94%
same,Total impurities,"[1]; form C, Relative humidity 92.5%, 1 month",2.28%
same,Total impurities,"[1]; form C, Relative humidity 92.5%, 5 days",2.29%
same,Total impurities,"[1]; form C, Relative humidity 92.5%, 10 days",2.22%
same,"Stability, conclusion in words",[1],relatively stable under high temperature and high humidity conditions

# Reference: US11465986B2, “Crystal form of c-MET inhibitor and salt form thereof and preparation method therefor” (FUJIAN AKEYLINK BIOTECHNOLOGY CO., LTD., priority 2018, dated 2022)
